The supplement of paper PMC10307832

These cell lines were tested with CC1(COc2ccc3c(c2)ncn3-c2ccc3cccc(N4CCC(N)CC4)c3n2)COC1 [Crenolanib] + CS(=O)(=O)N1CCN(Cc2cc3nc(-c4cccc5[nH]ncc45)nc(N4CCOCC4)c3s2)CC1 [Pictilisib] (partner 1 µM) (assay: relative viability (nuclei count vs DMSO), 5 days (fraction); higher = more cells survive). Conditions: first compound 0.01 µM.
How it was run: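 Five library-drug doses in √10 steps were combined with a fixed anchor-drug dose, or a single drug was given alone, by pin tool to lung cancer cell lines in 1536-well plates the day after seeding. Nuclei were stained and counted after 5 days. Relative viability is the nuclei count in treated wells over that in vehicle wells, taken as the median of duplicate plates.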
HCC-15 was tested, and the relative viability was 0.695.
With HCC-827 the relative viability was 1.12.
Cell Line LOU-NH91 has a relative viability of 0.595.
NCI-H2023 gave a relative viability of 0.264.
A-427 showed a relative viability of 0.747.
For NCI-H460, the relative viability was 0.379.
NCI-H727 gave a relative viability of 0.491.
NCI-H1755 was tested, and the relative viability was 0.423.
NCI-H520 showed a relative viability of 0.267.
Work on NCI-H2405 yielded a relative viability of 0.473.
Work on SW 1573 yielded a relative viability of 0.368.
NCI-H1395 was tested, and the relative viability was 0.655.
Work on 201T yielded a relative viability of 0.724.
NCI-H1975 gave a relative viability of 0.271.
HOP-62 showed a relative viability of 0.724.
NCI-H1299 was tested, and the relative viability was 0.793.

Same assay, conditions: first compound 0.03162 µM
For NCI-H2087, the relative viability was 0.918.
Calu-6 gave a relative viability of 0.91.
For HCC-44, the relative viability was 0.649.
NCI-H1703 showed a relative viability of 0.238.
NCI-H647 gave a relative viability of 0.314.
Work on LK-2 yielded a relative viability of 0.461.
With NCI-H2126 the relative viability was 0.509.
For SK-MES-1, the relative viability was 0.33.
Work on HARA yielded a relative viability of 0.369.
COR-L23 showed a relative viability of 0.756.
COR-L 105 gave a relative viability of 0.363.
For LC-2-ad, the relative viability was 0.446.
LU99A showed a relative viability of 0.324.
NCI-H2170 gave a relative viability of 0.296.
In the case of NCI-H3122, the relative viability is reported as 0.497.
For IA-LM, the relative viability was 0.305.
With HCC-78 the relative viability was 0.223.
For A549, the relative viability was 0.545.
For LXF-289, the relative viability was 0.666.
BEN gave a relative viability of 0.574.
In the case of HCC-15, the relative viability is reported as 0.731.
Work on HCC-827 yielded a relative viability of 1.16.
For LOU-NH91, the relative viability was 0.525.
In the case of NCI-H2023, the relative viability is reported as 0.288.
A-427 showed a relative viability of 0.674.
Cell Line NCI-H460 has a relative viability of 0.306.
NCI-H727 was tested, and the relative viability was 0.634.
For NCI-H1755, the relative viability was 0.408.
NCI-H520 showed a relative viability of 0.324.
NCI-H2405 gave a relative viability of 0.417.
For SW 1573, the relative viability was 0.521.
For NCI-H1395, the relative viability was 0.562.
For 201T, the relative viability was 0.704.
NCI-H1975 was tested, and the relative viability was 0.307.
HOP-62 was tested, and the relative viability was 0.946.
Cell Line NCI-H1299 has a relative viability of 0.825.

Same assay, conditions: first compound 0.1 µM
NCI-H2087 was tested, and the relative viability was 0.665.
In the case of Calu-6, the relative viability is reported as 0.978.
Work on HCC-44 yielded a relative viability of 0.575.
Work on NCI-H1703 yielded a relative viability of 0.212.
NCI-H647 was tested, and the relative viability was 0.412.
With LK-2 the relative viability was 0.662.
With NCI-H2126 the relative viability was 0.51.
SK-MES-1 was tested, and the relative viability was 0.375.
In the case of HARA, the relative viability is reported as 0.283.
Work on COR-L23 yielded a relative viability of 0.677.
COR-L 105 showed a relative viability of 0.341.
In the case of LC-2-ad, the relative viability is reported as 0.434.
Work on LU99A yielded a relative viability of 0.325.
With NCI-H2170 the relative viability was 0.32.
For NCI-H3122, the relative viability was 0.561.
IA-LM showed a relative viability of 0.314.
HCC-78 was tested, and the relative viability was 0.239.
With A549 the relative viability was 0.554.
LXF-289 was tested, and the relative viability was 0.733.
BEN gave a relative viability of 0.51.
Cell Line HCC-15 has a relative viability of 0.696.
HCC-827 was tested, and the relative viability was 0.961.
LOU-NH91 gave a relative viability of 0.473.
NCI-H2023 showed a relative viability of 0.233.
A-427 showed a relative viability of 0.642.
NCI-H460 gave a relative viability of 0.316.
With NCI-H727 the relative viability was 0.342.
NCI-H1755 gave a relative viability of 0.397.
NCI-H520 was tested, and the relative viability was 0.326.
With NCI-H2405 the relative viability was 0.285.
With SW 1573 the relative viability was 0.451.
NCI-H1395 was tested, and the relative viability was 0.708.
Cell Line 201T has a relative viability of 0.695.
Work on NCI-H1975 yielded a relative viability of 0.247.
HOP-62 was tested, and the relative viability was 0.602.
With NCI-H1299 the relative viability was 0.657.

Same assay, conditions: first compound 0.3162 µM
NCI-H2087 was tested, and the relative viability was 0.761.
Calu-6 gave a relative viability of 1.15.
HCC-44 was tested, and the relative viability was 0.571.
Work on NCI-H1703 yielded a relative viability of 0.209.
NCI-H647 showed a relative viability of 0.423.
In the case of LK-2, the relative viability is reported as 0.473.
With NCI-H2126 the relative viability was 0.47.
SK-MES-1 was tested, and the relative viability was 0.385.
For HARA, the relative viability was 0.289.
With COR-L23 the relative viability was 1.03.
COR-L 105 showed a relative viability of 0.514.
Cell Line LC-2-ad has a relative viability of 0.465.
LU99A showed a relative viability of 0.393.
NCI-H2170 gave a relative viability of 0.272.
NCI-H3122 gave a relative viability of 0.732.
IA-LM gave a relative viability of 0.64.
In the case of HCC-78, the relative viability is reported as 0.216.
A549 showed a relative viability of 0.689.
LXF-289 gave a relative viability of 0.916.
With BEN the relative viability was 0.522.
Work on HCC-15 yielded a relative viability of 0.644.
HCC-827 showed a relative viability of 0.94.
LOU-NH91 gave a relative viability of 0.56.
NCI-H2023 showed a relative viability of 0.278.
For A-427, the relative viability was 0.582.
In the case of NCI-H460, the relative viability is reported as 0.363.
Work on NCI-H727 yielded a relative viability of 0.473.
With NCI-H1755 the relative viability was 0.399.
For NCI-H520, the relative viability was 0.295.
In the case of NCI-H2405, the relative viability is reported as 0.347.
SW 1573 was tested, and the relative viability was 0.656.
Cell Line NCI-H1395 has a relative viability of 0.789.
With 201T the relative viability was 0.689.
For NCI-H1975, the relative viability was 0.283.
With HOP-62 the relative viability was 0.768.
With NCI-H1299 the relative viability was 0.878.

Same assay, conditions: first compound 1 µM
Cell Line NCI-H2087 has a relative viability of 0.861.
With Calu-6 the relative viability was 0.968.
Work on HCC-44 yielded a relative viability of 0.492.
NCI-H1703 gave a relative viability of 0.228.
In the case of NCI-H647, the relative viability is reported as 0.454.
LK-2 showed a relative viability of 0.615.
NCI-H2126 was tested, and the relative viability was 0.476.
For SK-MES-1, the relative viability was 0.377.
Cell Line HARA has a relative viability of 0.353.
In the case of COR-L23, the relative viability is reported as 0.654.
Work on COR-L 105 yielded a relative viability of 0.411.
For LC-2-ad, the relative viability was 0.375.
For LU99A, the relative viability was 0.287.
With NCI-H2170 the relative viability was 0.305.
Work on NCI-H3122 yielded a relative viability of 0.738.
For IA-LM, the relative viability was 0.522.
Work on HCC-78 yielded a relative viability of 0.237.
A549 was tested, and the relative viability was 0.506.
With LXF-289 the relative viability was 0.755.
BEN was tested, and the relative viability was 0.609.
In the case of HCC-15, the relative viability is reported as 0.671.
Cell Line HCC-827 has a relative viability of 1.03.
In the case of LOU-NH91, the relative viability is reported as 0.53.
For NCI-H2023, the relative viability was 0.205.
For A-427, the relative viability was 0.651.
NCI-H460 was tested, and the relative viability was 0.308.
NCI-H727 gave a relative viability of 0.418.
Cell Line NCI-H1755 has a relative viability of 0.393.
In the case of NCI-H520, the relative viability is reported as 0.301.
NCI-H2405 showed a relative viability of 0.375.
SW 1573 was tested, and the relative viability was 0.598.
Cell Line NCI-H1395 has a relative viability of 0.553.
For 201T, the relative viability was 0.634.
NCI-H1975 showed a relative viability of 0.214.
Cell Line HOP-62 has a relative viability of 0.517.
NCI-H1299 was tested, and the relative viability was 0.795.

Each cell line was assayed with CC1(COc2ccc3c(c2)ncn3-c2ccc3cccc(N4CCC(N)CC4)c3n2)COC1 [Crenolanib] (assay: relative viability (nuclei count vs DMSO), 5 days (fraction); higher = more cells survive). Conditions: 0.01 µM.
How it was run: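 Five library-drug doses spaced by √10 were pinned onto vehicle-anchored 1536-well plates of lung cancer cell lines that had been kept overnight at 37 °C. Cells went 5 days without medium change, then were fixed, permeabilised and Hoechst-stained together, imaged at 4× and counted by MetaXpress. Viability is the ratio of treated-well to vehicle-well nuclei, taken as a median over plates. Plates required control CV below 25% and at least one doubling.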
Cell Line NCI-H2087 has a relative viability of 0.938.
